Where two headings read alike, the source gives them in different places.
Columns and labels:
Test in all cases: Disk diffusion assay (zone of inhibition)
Format in all cases: cell-based
MRSA T998608 = details: Staphylococcus aureus, 20 μl of 1.25 mg/ml in 4% P80/Span 80 (1:1), calcium alginate swabs, dried overnight, duplicate, read-out: Inhibition zone diameter
Protocol: (§1) Oritavancin powder was dissolved in freshly-prepared solutions of the indicated excipients at concentrations of 0.625, 1.25, 2.5, 5, and 10 mg/ml (adjusted for potency based on lot 875561L00 purity of 83.1%) by vortexing for a minimum of 5 minutes. Oritavancin solutions in the various excipients, while not visually clear, were free from any apparent particulates as assessed visually. Sterile Oxoid blank disks were impregnated with 20 μl of these oritavancin solutions, resulting in oritavancin disk loads ranging from 12.5 to 200 μg. Unless indicated otherwise, disks were allowed to dry overnight at room temperature prior to use.
(§2) Bacterial suspensions from isolated colonies on overnight cation-adjusted Mueller Hinton agar plates were prepared in sterile saline and adjusted to an optical density of 0.1 at 600 nm Standard cation-adjusted Mueller Hinton agar plates (90 mm diameter) were seeded with bacterial suspensions by initially swabbing the center of plate then moving outward. Swabbing was continued at a right angle and then at an oblique angle to the first and second swabs. Disks were placed upon the seeded plates with sterile forceps. Plates were then incubated overnight at 37° C. and inhibition zone diameters were measured with a ruler and reported in millimeters.

MRSA V406957 = details: Staphylococcus aureus, 20 μl of 1.25 mg/ml in 4% P80/Span 80 (1:1), calcium alginate swabs, dried overnight, duplicate, read-out: Inhibition zone diameter
Protocol: as §1, §2

MSSA V406985 = details: Staphylococcus aureus, 20 μl of 1.25 mg/ml in 4% P80/Span 80 (1:1), calcium alginate swabs, dried overnight, duplicate, read-out: Inhibition zone diameter
Protocol: as §1, §2

MRSA V288615 = details: Staphylococcus aureus, 20 μl of 1.25 mg/ml in 4% P80/Span 80 (1:1), calcium alginate swabs, dried overnight, duplicate, read-out: Inhibition zone diameter
Protocol: as §1, §2

MRSA U784439 = details: Staphylococcus aureus, 20 μl of 1.25 mg/ml in 4% P80/Span 80 (1:1), calcium alginate swabs, dried overnight, duplicate, read-out: Inhibition zone diameter
Protocol: as §1, §2

MRSA NRS121-ORI^RS = details: Staphylococcus aureus, read-out: Zone diameter (mm ± SD)
Source text: (§3) The study was designed to identify conditions that improve oritavancin diffusion in agar and consequently yield a zone diameter ≧15 mm for the CLSI quality control strain MSSA ATCC 25923. Excipients that increased the disk diffusion of oritavancin in agar relative to disks containing only oritavancin were identified and selected for further study. […] A prediffusion step at room temperature was introduced to maximize oritavancin diffusion prior to initiation of bacterial growth. In this step, the antimicrobial disks were placed on agar plates seeded with a bacterial isolate and incubated at room temperature for 3 hours. Plates were then incubated overnight at 37° C. Zone diameters around the disks in which bacterial growth was inhibited were measured with a ruler and reported in millimeters.
(§4) Ethanol-sterilized Whatman paper disks (6 mm diameter) were allowed to dry then impregnated with 20 microliters of oritavancin solution containing total amounts ranging from 90 to 360 micrograms. Disks were allowed to dry at room temperature for various times prior to use.
(§5) Bacterial suspensions were prepared and adjusted to an optical density of 0.1 at 600 nm. Standard cation-adjusted Mueller Hinton agar plates (90 mm diameter) were seeded with bacterial suspensions by initially swabbing the center of plate then moving outward towards the edge. The plate was swabbed a second time, perpendicular to the orientation of the first swab. To assess the impact of prediffusion on diameter of inhibition zones, two disks were immediately placed on one half of the plate and the plate was incubated for 3 hours at room temperature. After 3 hours, two additional disks were placed on the other half of the plate then the plate was incubated overnight at 37° C. Zone diameters were measured with a ruler and reported in millimeters.

MSSA T972018 = details: Staphylococcus aureus, read-out: Zone diameter (mm ± SD)
Source text: as §3, §4, §5

MRSA NRS123-ORI^RS = details: Staphylococcus aureus, read-out: Zone diameter (mm ± SD)
Source text: as §3, §4, §5

MRSA NRS123 = details: Staphylococcus aureus; for zone of inhibition at 90 µg/disc: 90 μg oritavancin; for zone of inhibition at 180 µg/disc: 180 μg oritavancin
Source text: as §3, §4, §5

[1] = 360 μg in 5% P80, Average, no prediffusion
[2] = 360 μg in 5% P80, Average, prediffusion
[3] = 360 μg in 5% P80, Experiment 2, disks stored 8 days, 3 h prediffusion at room temperature
[4] = 192 h, 360 μg in 5% P80, Experiment 2, disks stored 8 days, no prediffusion
[5] = 192 h, 2.5% P80, disks stored 8 days, prediffusion, read-out: Average zone diameter
[6] = 336 h, 5% P80, disks stored 14 days, prediffusion, read-out: Average zone diameter

Compound: CN[C@H](CC(C)C)C(=O)N[C@H]1C(=O)N[C@@H](CC(N)=O)C(=O)N[C@H]2C(=O)N[C@H]3C(=O)N[C@H](C(=O)N[C@H](C(=O)O)c4cc(O)cc(O)c4-c4cc3ccc4O)[C@H](O[C@H]3C[C@](C)(N)[C@@H](O)[C@H](C)O3)c3ccc(c(Cl)c3)Oc3cc2cc(c3O[C@@H]2O[C@H](CO)[C@@H](O)[C@H](O)[C@H]2O[C@H]2C[C@](C)(NCc3ccc(-c4ccc(Cl)cc4)cc3)[C@@H](O)[C@H](C)O2)Oc2ccc(cc2Cl)[C@H]1O [oritavancin, N-(4-(4-chlorophenyl)benzyl)A82846B]
- zone of inhibition at 1250 µg/mL (MRSA T998608): 22 mm
- zone of inhibition at 1250 µg/mL (MRSA V406957): 21 mm
- zone of inhibition at 1250 µg/mL (MSSA V406985): 24 mm
- zone of inhibition at 1250 µg/mL (MRSA V288615): 23 mm
- zone of inhibition at 1250 µg/mL (MRSA U784439): 20 mm
- zone of inhibition at 360 µg/disc (MRSA NRS121-ORI^RS; [1]): 13 mm
- zone of inhibition at 360 µg/disc (MRSA NRS121-ORI^RS; [2]): 14 mm
- zone of inhibition at 360 µg/disc (MRSA NRS121-ORI^RS; [3]): 14 mm
- zone of inhibition at 360 µg/disc (MRSA NRS121-ORI^RS; [4]): 13 mm
- zone of inhibition at 360 µg/disc (MSSA T972018; 360 μg in 5% P80, Average of experiments, no prediffusion): 15 ± 0.6 mm
- zone of inhibition at 360 µg/disc (MSSA T972018; 360 μg in 5% P80, Average of experiments, prediffusion): 17.4 ± 0.3 mm
- zone of inhibition at 360 µg/disc (MSSA T972018; 360 μg in 5% P80, Experiment 1, disks stored 14 days, 3 h prediffusion at room temperature): 17.5 mm
- zone of inhibition at 360 µg/disc (MSSA T972018; [3]): 17.3 ± 0.4 mm
- zone of inhibition at 360 µg/disc (MSSA T972018; [4]): 14.5 mm
- zone of inhibition at 360 µg/disc (MSSA T972018; 336 h, 360 μg in 5% P80, Experiment 1, disks stored 14 days, no prediffusion): 15.5 mm
- zone of inhibition at 360 µg/disc (MRSA NRS123-ORI^RS; [1]): 14 mm
- zone of inhibition at 360 µg/disc (MRSA NRS123-ORI^RS; [2]): 15 mm
- zone of inhibition at 360 µg/disc (MRSA NRS123-ORI^RS; [3]): 15 mm
- zone of inhibition at 360 µg/disc (MRSA NRS123-ORI^RS; [4]): 14 mm
- zone of inhibition at 360 µg/disc (MRSA NRS123; 360 μg in 5% P80, Average of experiments, no prediffusion, read-out: Zone diameter (mm ± SD)): 16 ± 0.4 mm
- zone of inhibition at 360 µg/disc (MRSA NRS123; 360 μg in 5% P80, Average of experiments, prediffusion, read-out: Zone diameter (mm ± SD)): 18.8 ± 0.9 mm
- zone of inhibition at 360 µg/disc (MRSA NRS123; 360 μg in 5% P80, Experiment 1, disks stored 14 days, 3 h prediffusion at room temperature, read-out: Zone diameter (mm ± SD)): 19.5 mm
- zone of inhibition at 360 µg/disc (MRSA NRS123; 360 μg in 5% P80, Experiment 2, disks stored 8 days, 3 h prediffusion at room temperature, read-out: Zone diameter (mm ± SD)): 18 mm
- zone of inhibition at 90 µg/disc (MRSA NRS123; [5]): 15.8 mm
- zone of inhibition at 180 µg/disc (MRSA NRS123; [5]): 16.5 mm
- zone of inhibition at 360 µg/disc (MRSA NRS123; 192 h, 360 μg in 5% P80, Experiment 2, disks stored 8 days, no prediffusion, read-out: Zone diameter (mm ± SD)): 15.8 ± 0.4 mm
- zone of inhibition at 360 µg/disc (MRSA NRS123; 192 h, 360 μg oritavancin, 2.5% P80, disks stored 8 days, prediffusion, read-out: Average zone diameter): 16.8 mm
- zone of inhibition at 90 µg/disc (MRSA NRS123; [6]): 16 mm
- zone of inhibition at 90 µg/disc (MRSA NRS123; 336 h, 10% P80, disks stored 14 days, prediffusion, read-out: Average zone diameter): 15.5 mm
- zone of inhibition at 180 µg/disc (MRSA NRS123; [6]): 17.3 mm
